In US20240082222A1, “4-CHLORO-N-[2-[(4-CHLOROPHENYL)METHYL]-3-OXO-1,2,4-THIADIAZOL-5-YL]BENZAMIDE FOR USE IN MEDICINE” (Betagenon AB, priority 2021, published 2024):
Several values for one entry are separate records, joined by “and”; a condition that tells them apart may be missing. Equal entries are not always repeated. Structures can show the parent of a compound that is named as a salt. Where two headings read alike, the source gives them in different places.

Assay: Pharmacokinetic study in humans, sodium salt tablets, multiple dose (Example 3)
Type: in vivo, human
Method: An open, randomised, parallel-group study was conducted to evaluate the exposure and safety of 4-chloro-N-[2-[(4-chlorophenyl)methyl]-3-oxo-1,2,4-thiadiazol-5-yl]benzamide sodium salt tablets in doses of 212.12 mg and 424.24 mg (equivalent to 200 mg and 400 mg doses of 4-chloro-N-[2-[(4-chlorophenyl)methyl]-3-oxo-1,2,4-thiadiazol-5-yl]benzamide) at steady state in healthy volunteers (hereafter referred to as subjects).
Each “400 mg” tablet contained 424.24 mg of a sodium salt of 4-chloro-N-[2-[(4-chlorophenyl)methyl]-3-oxo-1,2,4-thiadiazol-5-yl]benzamide (Compound of formula II) which corresponds to 400 mg of the parent compound 4-chloro-N-[2-[(4-chlorophenyl)methyl]-3-oxo-1,2,4-thiadiazol-5-yl]benzamide.
Twenty (20) subjects were randomised (1:1) to treatment with either 200 mg (1 tablet of 200 mg) or 400 mg (1 tablet of 400 mg) of the test substance.
A screening visit (Visit 1) was performed within 28 days before randomisation and the start of IMP administration. The subjects arrived at the research clinic on Day 1 (Visit 2), randomised, and received the first administration of the test substance (200 mg or 400 mg as randomised).
The subjects returned to the clinic in the morning of Day 2 (Visit 3) for pre-dose PK sampling and subsequent administration of the test substance.
Before leaving the clinic, the subjects were provided with the test substance for 18 days once daily self-administration at home (Day 3 to Day 20).
After 18 days of home-based self-administration of the test substance, the subjects returned to the clinic in the morning of Day 21 (Visit 5) for pre-dose PK sampling and subsequent administration of the last dose of the test substance. The subjects remained at the clinic for at least 8 hours post-dose for safety assessments and additional PK sampling. In the morning of Day 22 (Visit 6), the subjects came for a last visit to the clinic for a final PK sample 24 hours after the last dose.
Venous blood samples (approximately 5 mL) for the determination of plasma concentrations of 4-chloro-N-[2-[(4-chlorophenyl)methyl]-3-oxo-1,2,4-thiadiazol-5-yl]benzamide after administration of the test substance were collected through an indwelling venous catheter on Days 2, 21 and 22.
The blood samples were collected in pre-labelled Li-Heparin tubes. All the collected blood samples were be centrifuged at 1500 G for 10 minutes to separate plasma within 60 minutes from the sample is drawn. The separated plasma from each blood sample was be divided into 2 aliquots in pre-labelled polypropylene cryotubes (A and B samples, approximately 750 μL in each tube) and frozen at <−70° C.
Samples for determination of plasma concentrations of 4-chloro-N-[2-[(4-chlorophenyl)methyl]-3-oxo-1,2,4-thiadiazol-5-yl]benzamide were analysed by Lablytica Life Science AB, Uppsala, Sweden by means of a validated LS-MS/MS method.
The data of plasma concentration to respective time points for the analyte (4-chloro-N-[2-[(4-chlorophenyl)methyl]-3-oxo-1,2,4-thiadiazol-5-yl]benzamide) were used for the pharmacokinetic analysis. Pharmacokinetic analysis was performed using non-compartmental analysis (NCA) module of Phoenix WinNonlin 8.1 software to determine the following pharmacokinetic parameters after multiple dose administration of test substance.
Primary endpoint: • Cmax, AUC0-last, Tmax at steady state Day 21 in each dose group.

[1] = 200 mg Dose Group, tablet once daily, Day 21, individual subjects, listed as O304 Na salt
[2] = 212 mg sodium salt in tablet form
[3] = 400 mg Dose Group, tablet once daily, Day 21, individual subjects, listed as O304 Na salt

Tlast (200 mg Dose Group, tablet once daily, Day 21, Mean): 24.01 h | Tlast (200 mg Dose Group, tablet once daily, Day 21, Median): 24.0 h | Tlast [1]: 24.0 h (8×) and 24.1 h | Tmax [1]: 24.0 h and 0.00 h and 2.00 h and 4.00 h | increase in systemic accumulation from Day 1 to Day 21 [2]: approximately seven-fold | increase in systemic exposure, tablet compared to capsules containing 200 mg [2]: up to two-fold | Tlast (400 mg Dose Group, tablet once daily, Day 21, Mean): 24.07 h | Tlast (400 mg Dose Group, tablet once daily, Day 21, Median): 24.0 h | Tlast [3]: 24.0 h (6×) and 24.4 h and 24.1 h (2×) | increase in systemic accumulation from Day 1 to Day 21 (424 mg sodium salt in tablet form): approximately five-fold | AUC(0-t) (human, plasma, oral, 200 mg, 200 mg Dose Group, tablet once daily, Day 21, Mean): 1940 µg·h/mL | concentration at 24 h (human, plasma, oral, 200 mg, 200 mg Dose Group, tablet once daily, Day 21, Mean, read-out: Clast): 80.4 µg/mL | Cmax (human, plasma, oral, 200 mg, 200 mg Dose Group, tablet once daily, Day 21, Mean, read-out: Cmax): 86.8 µg/mL | Tmax (human, plasma, oral, 200 mg, 200 mg Dose Group, tablet once daily, Day 21, Mean, read-out: Tmax): 10.9 h | AUC(0-t) (human, plasma, oral, 200 mg, 200 mg Dose Group, tablet once daily, Day 21, Median): 1720 µg·h/mL | concentration at 24 h (human, plasma, oral, 200 mg, 200 mg Dose Group, tablet once daily, Day 21, Median, read-out: Clast): 76.9 µg/mL | Cmax (human, plasma, oral, 200 mg, 200 mg Dose Group, tablet once daily, Day 21, Median, read-out: Cmax): 77.1 µg/mL | Tmax (human, plasma, oral, 200 mg, 200 mg Dose Group, tablet once daily, Day 21, Median, read-out: Tmax): 8 h | concentration at 24 h (human, plasma, oral, 200 mg, 200 mg dose group (212.12 mg sodium salt tablet once daily), 24 h after dose of Day 1, read-out: Clast at 24 hours, Mean): 11.4 µg/mL | concentration at 24 h (human, plasma, oral, 200 mg, 200 mg dose group (212.12 mg sodium salt tablet once daily), 24 h after dose of Day 1, read-out: Clast at 24 hours, Median): 11.2 µg/mL | concentration at 24 h (human, plasma, oral, 200 mg, 200 mg dose group (212.12 mg sodium salt tablet once daily), 24 h after dose of Day 21, read-out: Clast at 24 hours, Mean): 80.4 µg/mL | concentration at 24 h (human, plasma, oral, 200 mg, 200 mg dose group (212.12 mg sodium salt tablet once daily), 24 h after dose of Day 21, read-out: Clast at 24 hours, Median): 76.9 µg/mL | AUC(0-t) (human, plasma, oral, 400 mg, 400 mg Dose Group, tablet once daily, Day 21, Mean): 3110 µg·h/mL | concentration at 24 h (human, plasma, oral, 400 mg, 400 mg Dose Group, tablet once daily, Day 21, Mean, read-out: Clast): 129 µg/mL | Cmax (human, plasma, oral, 400 mg, 400 mg Dose Group, tablet once daily, Day 21, Mean, read-out: Cmax): 138 µg/mL | Tmax (human, plasma, oral, 400 mg, 400 mg Dose Group, tablet once daily, Day 21, Mean, read-out: Tmax): 11.2 h | AUC(0-t) (human, plasma, oral, 400 mg, 400 mg Dose Group, tablet once daily, Day 21, Median): 2930 µg·h/mL | concentration at 24 h (human, plasma, oral, 400 mg, 400 mg Dose Group, tablet once daily, Day 21, Median, read-out: Clast): 116 µg/mL | Cmax (human, plasma, oral, 400 mg, 400 mg Dose Group, tablet once daily, Day 21, Median, read-out: Cmax): 132 µg/mL | Tmax (human, plasma, oral, 400 mg, 400 mg Dose Group, tablet once daily, Day 21, Median, read-out: Tmax): 4.02 h | AUC(0-t) (human, plasma, oral, 400 mg, 400 mg Dose Group, tablet once daily, Day 21, individual subjects): 2930 µg·h/mL | Cmax (human, plasma, oral, 400 mg, 400 mg Dose Group, tablet once daily, Day 21, individual subjects, read-out: Cmax): 132 µg/mL | concentration at 24 h (human, plasma, oral, 400 mg, 400 mg dose group (424.24 mg sodium salt tablet once daily), 24 h after dose of Day 1, read-out: Clast at 24 hours, Mean): 24.9 µg/mL | concentration at 24 h (human, plasma, oral, 400 mg, 400 mg dose group (424.24 mg sodium salt tablet once daily), 24 h after dose of Day 1, read-out: Clast at 24 hours, Median): 21.5 µg/mL | concentration at 24 h (human, plasma, oral, 400 mg, 400 mg dose group (424.24 mg sodium salt tablet once daily), 24 h after dose of Day 21, read-out: Clast at 24 hours, Mean): 129 µg/mL | concentration at 24 h (human, plasma, oral, 400 mg, 400 mg dose group (424.24 mg sodium salt tablet once daily), 24 h after dose of Day 21, read-out: Clast at 24 hours, Median): 116 µg/mL | peak blood plasma concentration (repeated dosing of 212 mg in the form of a tablet): ≥ 85 µg/mL | accumulation in the blood plasma after repeat dosing (tablets, once daily): substantial accumulation
Structure (SMILES): O=C(Nc1nc(=O)n(Cc2ccc(Cl)cc2)s1)c1ccc(Cl)cc1 [Compound of formula II, sodium salt of 4-chloro-N-[2-[(4-chlorophenyl)methyl]-3-oxo-1,2,4-thiadiazol-5-yl]benzamide]
Clast [1]: 80.1 µg/mL and 109 µg/mL and 144 µg/mL and 51.7 µg/mL and 76.9 µg/mL and 62.3 µg/mL and 65.1 µg/mL and 81.3 µg/mL and 53.4 µg/mL | AUClast [3]: 4790 µg·h/mL and 3600 µg·h/mL and 2450 µg·h/mL and 2950 µg·h/mL and 3550 µg·h/mL and 2800 µg·h/mL and 2460 µg·h/mL | Clast [3]: 116 µg/mL and 201 µg/mL and 151 µg/mL and 96.7 µg/mL and 135 µg/mL and 144 µg/mL and 111 µg/mL and 106 µg/mL and 100 µg/mL | Cmax [3]: 201 µg/mL and 169 µg/mL and 106 µg/mL and 135 µg/mL and 168 µg/mL and 124 µg/mL and 105 µg/mL | Tmax [3]: 24.4 h and 4.00 h and 8.02 h and 24.1 h and 24.0 h
